Results as given in patent US20140051679A1, “KINASE INHIBITORS AND METHOD OF TREATING CANCER WITH SAME” (UNIVERISTY HEALTH NETWORKS, priority 2011, published 2014).
Where two headings read alike, the source gives them in different places.

Columns and labels:
[1] = system: PA-1 ovarian cancer cells; test: Cell growth inhibition, Sulforhodamine B assay, PA-1; assay type: cell-based; conditions: 5 days culture, SRB assay, read-out: Cell Line GI50 Range PA-1
Aurora B = molecular target: T1, Aurora B (Homo sapiens, UniProt Q96GD4); test: Aurora B inhibition assay (Z-Lyte); assay type: biochemical; conditions: 28 nM Aurora B, 128 μM ATP; read-out: IC50 Ranges Aurora B
T1 construct: purchased Invitrogen PV3970
Experimental: Aurora B inhibition was determined using the Z-Lyte assay kit from Invitrogen. The assay was performed using the recommended manufacturer's instructions with 128 μM ATP and 28 nM Aurora B (Invitrogen cat #PV3970). The % inhibition values were determined according to the manufacturer's directions and IC50 values were obtained using a non-linear 4 point logistic curve fit (XLfit4, IDBS)

[2] = system: MDA-MB-231 breast cancer cells; test: Cell growth inhibition, Sulforhodamine B assay, MDA-MB-231; assay type: cell-based; conditions: Homo sapiens, 120 h, 5 days culture, SRB assay, read-out: Cell Line GI50 Range MDA-MB-231
[3] = system: MDA-MB-468 breast cancer cells; test: Cell growth inhibition, Sulforhodamine B assay, MDA-MB-468; assay type: cell-based; conditions: 5 days culture, SRB assay, read-out: Cell Line GI50 Range MDA-MB-468
human TTK = molecular target: T2, human TTK (Homo sapiens, UniProt P33981); test: TTK inhibition assay (indirect ELISA); assay type: biochemical; conditions: GST-TTK 0.68 nM, 16 μM ATP; read-out: IC50 Ranges TTK
T2 construct: amino terminal GST fusion of full length human TTK; purchased Invitrogen
T2 sequence (P33981 1-857): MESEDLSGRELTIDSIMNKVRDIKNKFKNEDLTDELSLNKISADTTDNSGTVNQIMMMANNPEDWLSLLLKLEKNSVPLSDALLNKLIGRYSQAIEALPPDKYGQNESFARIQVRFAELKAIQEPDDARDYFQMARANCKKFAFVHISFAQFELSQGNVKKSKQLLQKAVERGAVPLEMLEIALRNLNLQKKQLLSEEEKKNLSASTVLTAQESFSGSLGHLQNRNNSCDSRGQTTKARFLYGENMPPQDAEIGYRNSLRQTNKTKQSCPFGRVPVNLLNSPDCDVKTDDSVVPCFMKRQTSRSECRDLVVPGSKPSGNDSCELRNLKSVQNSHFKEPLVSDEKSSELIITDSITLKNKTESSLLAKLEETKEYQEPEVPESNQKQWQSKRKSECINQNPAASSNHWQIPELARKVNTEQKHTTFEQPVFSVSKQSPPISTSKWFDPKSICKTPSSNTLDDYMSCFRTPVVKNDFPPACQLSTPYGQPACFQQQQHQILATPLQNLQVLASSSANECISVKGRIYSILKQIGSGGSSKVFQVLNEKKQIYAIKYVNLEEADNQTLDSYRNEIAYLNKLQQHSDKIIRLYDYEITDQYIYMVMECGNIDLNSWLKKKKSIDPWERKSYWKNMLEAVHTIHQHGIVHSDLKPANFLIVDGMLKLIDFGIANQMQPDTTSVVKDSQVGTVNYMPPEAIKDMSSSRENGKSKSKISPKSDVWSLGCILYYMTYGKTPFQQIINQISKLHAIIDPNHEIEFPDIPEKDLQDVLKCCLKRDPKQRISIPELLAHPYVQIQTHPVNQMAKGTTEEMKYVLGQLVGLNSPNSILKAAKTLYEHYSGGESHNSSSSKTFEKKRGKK

HT29 colon cancer cells = test: Cell growth inhibition, Sulforhodamine B assay, HT29; assay type: cell-based; conditions: 5 days culture, SRB assay, read-out: Cell Line GI50 Range HT29
[4] = system: HCT116 colon cancer cells; test: Cell growth inhibition, Sulforhodamine B assay, HCT116; assay type: cell-based; conditions: 5 days culture, SRB assay, read-out: Cell Line GI50 Range HCT116
human PLK4 = molecular target: T3, human PLK4 (Homo sapiens, UniProt O00444); test: PLK4 inhibition assay (indirect ELISA); assay type: biochemical; conditions: GST-PLK4 4 nM, 15 μM ATP; read-out: IC50 Ranges PLK4
T3 construct: amino terminal GST fusion of residues 1-391 of human PLK4; made in house; host or cells: E. coli
T3 sequence (O00444 1-391): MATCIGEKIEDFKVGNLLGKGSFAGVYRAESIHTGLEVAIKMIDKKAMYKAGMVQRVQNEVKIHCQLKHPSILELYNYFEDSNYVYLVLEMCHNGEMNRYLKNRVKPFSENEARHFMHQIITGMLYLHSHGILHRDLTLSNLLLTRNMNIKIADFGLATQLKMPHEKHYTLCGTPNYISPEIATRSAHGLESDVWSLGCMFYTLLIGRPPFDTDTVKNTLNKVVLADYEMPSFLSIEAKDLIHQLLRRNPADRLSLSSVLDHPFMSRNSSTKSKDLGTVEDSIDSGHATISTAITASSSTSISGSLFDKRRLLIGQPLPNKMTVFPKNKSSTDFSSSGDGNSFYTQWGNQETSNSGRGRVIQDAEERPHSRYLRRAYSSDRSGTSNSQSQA
In short: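 Compounds were tested either at a single 10 μM dose or across 10-point titrations (typically 0.5 to 0.001 μM), preincubated 15 min with 4 nM GST-PLK4 (human 1-391, dephosphorylated) before 15 μM ATP was added. MBP substrate phosphorylation over 30 min, pH 7.5 HEPES/MgCl2 buffer, read by HRP/TMB ELISA (450 nm). % inhibition vs. high-activity control; IC50 by logistic fit.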

T1 sequence (Q96GD4 whole entry): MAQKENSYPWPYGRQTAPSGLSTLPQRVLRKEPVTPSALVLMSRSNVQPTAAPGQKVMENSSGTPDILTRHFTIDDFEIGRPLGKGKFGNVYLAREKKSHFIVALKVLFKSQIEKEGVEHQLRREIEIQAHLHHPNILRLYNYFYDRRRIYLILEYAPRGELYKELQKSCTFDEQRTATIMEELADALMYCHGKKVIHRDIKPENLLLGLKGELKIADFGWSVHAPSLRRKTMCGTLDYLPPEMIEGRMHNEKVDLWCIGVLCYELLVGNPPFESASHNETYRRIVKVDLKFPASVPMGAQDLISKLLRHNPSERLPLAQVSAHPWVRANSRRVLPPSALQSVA

Row | GI50 ([1]; 120 h) [µM] | IC50 (Aurora B) [µM] | GI50 [2] [µM] | GI50 ([3]; Homo sapiens, 120 h) [µM] | IC50 (human TTK) [µM] | GI50 (HT29 colon cancer cells; Homo sapiens, HT-29, 120 h) [µM] | GI50 ([4]; Homo sapiens, HCT-116, 120 h) [µM] | IC50 (human PLK4) [µM] | GI50 [1] [µM] | GI50 [3] [µM] | GI50 (HT29 colon cancer cells) [µM] | GI50 [4] [µM] | SMILES
1 | ≤ 5 | ≤ 5 | ≤ 5 | ≤ 5 | ≤ 5 | ≤ 5 | ≤ 5 | ≤ 5 |  |  |  |  | CN1CCC(C(NC(=O)c2ccc3[nH]nc(-c4ccc(N5CCOCC5)cc4)c3c2)c2ccccc2)CC1 (stereo not drawn) [Example A85, N-((1-methylpiperidin-4-yl)(phenyl)methyl)-3-(4-morpholinophenyl)-1H-indazole-5-carboxamide]
2 |  | ≤ 5 |  |  | ≤ 5 |  |  | ≤ 5 | ≤ 5 | ≤ 5 | ≤ 5 | ≤ 5 | O=C(Nc1ccc2[nH]nc(-c3ccc(NC4CCC(O)CC4)cc3)c2c1)C(c1ccsc1)N1CCCC1 (stereo not drawn) [Example A105, rel-N-(3-(4-(((1r,4r)-4-hydroxycyclohexyl)amino)phenyl)-1H-indazol-5-yl)-2-(pyrrolidin-1-yl)-2-(thiophen-3-yl)acetamide]
3 | ≤ 5 | ≤ 5 |  | ≤ 5 | ≤ 5 | ≤ 5 | ≤ 5 | ≤ 5 |  |  |  |  | O=C(Nc1ccc2[nH]nc(-c3ccc(N4CCOCC4)cc3)c2c1)C(c1cccs1)N1CCCC1 (stereo not drawn) [Example A82, N-(3-(4-morpholinophenyl)-1H-indazol-5-yl)-2-(pyrrolidin-1-yl)-2-(thiophen-2-yl)acetamide]
4 | ≤ 5 | ≤ 5 | ≤ 5 | ≤ 5 | ≤ 5 | ≤ 5 | ≤ 5 | ≤ 5 |  |  |  |  | COC1CCN(c2ccc(-c3n[nH]c4ccc(NC(=O)C(c5ccsc5)N5CCCC5)cc34)cc2)CC1 (stereo not drawn) [Example A116, N-(3-(4-(4-methoxypiperidin-1-yl)phenyl)-1H-indazol-5-yl)-2-(pyrrolidin-1-yl)-2-(thiophen-3-yl)acetamide]
5 | ≤ 5 | ≤ 5 |  | ≤ 5 | ≤ 5 | ≤ 5 | ≤ 5 | ≤ 5 |  |  |  |  | O=C(NC(c1ccsc1)C1CC1)c1ccc2[nH]nc(-c3ccc(OC4CCN(CCO)CC4)cc3)c2c1 (stereo not drawn) [Example A117, N-(cyclopropyl(thiophen-3-methyl-3-yl)methyl)-3-(4-((1-(2-hydroxyethyl)piperidin-4-yl)oxy)phenyl)-1H-indazole-5-carboxamide]
6 | ≤ 5 | ≤ 5 |  | ≤ 5 | ≤ 5 | ≤ 5 | ≤ 5 | ≤ 5 |  |  |  |  | O=C(Nc1ccc2[nH]nc(-c3ccc(N4CC(O)C4)cc3)c2c1)C(c1ccsc1)N1CCCC1 (stereo not drawn) [Example A120, N-(3-(4-(3-Hydroxyazetidin-1-yl)phenyl)-1H-indazol-5-yl)-2-(pyrrolidin-1-yl)-2-(thiophen-3-yl)acetamide]
7 | ≤ 5 | ≤ 5 | ≤ 5 | ≤ 5 | ≤ 5 | ≤ 5 | ≤ 5 | ≤ 5 |  |  |  |  | CN1CCOc2ccc(-c3n[nH]c4ccc(NC(=O)C(c5ccsc5)N5CCCC5)cc34)cc2C1 (stereo not drawn) [Example A90, N-(3-(4-methyl-2,3,4,5-tetrahydrobenzo[f][1,4]oxazepin-7-yl)-1H-indazol-5-yl)-2-(pyrrolidin-1-yl)-2-(thiophen-3-yl)acetamide]
8 | ≤ 5 | ≤ 5 | ≤ 5 | ≤ 5 | ≤ 5 | ≤ 5 | ≤ 5 | ≤ 5 |  |  |  |  | CCc1cccc(CC)c1NC(=O)Nc1ccc2[nH]nc(-c3ccc(N4CCOCC4)cc3)c2c1 [Example A86, 1-(2,6-diethylphenyl)-3-(3-(4-morpholinophenyl)-1H-indazol-5-yl)urea]
9 | ≤ 5 | ≤ 5 |  | ≤ 5 | ≤ 5 | ≤ 5 | ≤ 5 | ≤ 5 |  |  |  |  | O=C(NC(c1ccccc1)C1CC1)c1ccc2[nH]nc(-c3ccc(N4CCC(O)CC4)cc3)c2c1 (stereo not drawn) [Example A84, N-(cyclopropyl(phenyl)methyl)-3-(4-(4-hydroxypiperidin-1-yl)phenyl)-1H-indazole-5-carboxamide]
10 | ≤ 5 | ≤ 5 |  | ≤ 5 | ≤ 5 | ≤ 5 | ≤ 5 | ≤ 5 |  |  |  |  | CC(C)(O)C1CCN(c2ccc(-c3n[nH]c4ccc(NC(=O)C(c5ccsc5)N5CCCC5)cc34)cc2)CC1 (stereo not drawn) [Example A111, N-(3-(4-(4-(2-hydroxypropan-2-yl)piperidin-1-yl)phenyl)-1H-indazol-5-yl)-2-(pyrrolidin-1-yl)-2-(thiophen-3-yl)acetamide]
11 | ≤ 5 | ≤ 5 |  | ≤ 5 | ≤ 5 | ≤ 5 | ≤ 5 | ≤ 5 |  |  |  |  | O=C(Nc1ccc2[nH]nc(-c3ccc(N4CCC(CO)CC4)cc3)c2c1)C(c1ccsc1)N1CCCC1 (stereo not drawn) [Example A95, N-(3-(4-(4-(hydroxymethyl)piperidin-1-yl)phenyl)-1H-indazol-5-yl)-2-(pyrrolidin-1-yl)-2-(thiophen-3-yl)acetamide]
12 | ≤ 5 | ≤ 5 |  | ≤ 5 | ≤ 5 | ≤ 5 | ≤ 5 | ≤ 5 |  |  |  |  | O=C(NC(c1ccccc1)C1CC1)c1ccc2[nH]nc(-c3ccc(N[C@H]4CC[C@H](O)CC4)cc3)c2c1 (single isomer, unassigned) [Example A106, rel-N-(cyclopropyl(phenyl)methyl)-3-(4-(((1r,4r)-4-hydroxycyclohexyl)amino)phenyl)-1H-indazole-5-carboxamide]
13 | ≤ 5 | ≤ 5 |  | ≤ 5 | ≤ 5 | ≤ 5 | ≤ 5 | ≤ 5 |  |  |  |  | O=C(Nc1ccc2[nH]nc(-c3ccc(N4CCC(O)CC4)cc3)c2c1)C(c1ccsc1)N1CCCCC1 (stereo not drawn) [Example A83, N-(3-(4-(4-hydroxypiperidin-1-yl)phenyl)-1H-indazol-5-yl)-2-(piperidin-1-yl)-2-(thiophen-3-yl)acetamide]
14 | ≤ 5 | ≤ 5 |  | ≤ 5 | ≤ 5 | ≤ 5 | ≤ 5 | ≤ 5 |  |  |  |  | Cc1ccccc1C(NC(=O)c1ccc2[nH]nc(-c3ccc(N4CCOCC4)cc3)c2c1)C1CC1 (stereo not drawn) [Example A119, N-(cyclopropyl(o-tolyl)methyl)-3-(4-morpholinophenyl)-1H-indazole-5-carboxamide]
